Data from patent US20260048047A1, “SMALL-MOLECULE ACTIVATORS OF MYCOBACTERIUM TUBERCULOSIS ADENYLYL CYCLASE” (priority 2022, published 2026).

Test system: M. tuberculosis
Assay: Extracellular activity against M. tuberculosis in cholesterol media (Alamar Blue reduction assay)
Assay type: cell-based, Mycobacterium tuberculosis
Details: Mycobacterium tuberculosis, 240 h, 7H12-Cholesterol media, 10 days; read-out: Cholesterol broth: alamar blue--EC50

| Structure (SMILES) | EC50 [µM] |
| --- | --- |
| Cc1nonc1CC(=O)N1CCC(c2nc(C3CCC3)no2)CC1 [Compound 66, 1-(4-(3-cyclobutyl-1,2,4-oxadiazol-5-yl)piperidin-1-yl)-2-(4-methyl-1,2,5-oxadiazol-3-yl)ethan-1-one] | > 25 |
| Cc1nonc1CC(=O)N1CCC(c2nc(C3CCC4(CC3)OCCO4)no2)CC1 [Compound 67, 1-(4-(3-(1,4-dioxaspiro[4.5]decan-8-yl)-1,2,4-oxadiazol-5-yl)piperidin-1-yl)-2-(4-methyl-1,2,5-oxadiazol-3-yl)ethan-1-one] | > 10 |
| Cc1nonc1CC(=O)N1CCC(c2nc(C3CCC4(CC3)CC4)no2)CC1 [Compound 68, 2-(4-methyl-1,2,5-oxadiazol-3-yl)-1-(4-(3-(spiro[2.5]octan-6-yl)-1,2,4-oxadiazol-5-yl)piperidin-1-yl)ethan-1-one] | 1.86 |
| Cc1nonc1CC(=O)N1CCC(c2noc(C3CCC4(CC3)CC4)n2)CC1 [Compound 69, 2-(4-methyl-1,2,5-oxadiazol-3-yl)-1-(4-(5-(spiro[2.5]octan-6-yl)-1,2,4-oxadiazol-3-yl)piperidin-1-yl)ethan-1-one] | > 25 |
| Cc1nonc1CC(=O)N1CCC(c2nc(C3CCCC3)no2)CC1 [Compound 70, 1-(4-(3-cyclopentyl-1,2,4-oxadiazol-5-yl)piperidin-1-yl)-2-(4-methyl-1,2,5-oxadiazol-3-yl)ethan-1-one] | 3.68 |
| Cc1nonc1CC(=O)N1CCC(n2nnc(C3CCCC3)n2)CC1 [Compound 71, 1-(4-(5-cyclopentyl-2H-tetrazol-2-yl)piperidin-1-yl)-2-(4-methyl-1,2,5-oxadiazol-3-yl)ethan-1-one] | > 25 |
| Cc1nonc1CC(=O)N1CCC(c2nc(C3CCCC4CC43)no2)CC1 (stereo not drawn) [Compound 72, 1-(4-(3-(bicyclo[4.1.0]heptan-2-yl)-1,2,4-oxadiazol-5-yl)piperidin-1-yl)-2-(4-methyl-1,2,5-oxadiazol-3-yl)ethan-1-one] | > 10 |
| Cc1nonc1CC(=O)N1CCC(c2nc(C3CCCCC3)no2)CC1 [Compound 73, 1-(4-(3-cyclohexyl-1,2,4-oxadiazol-5-yl)piperidin-1-yl)-2-(4-methyl-1,2,5-oxadiazol-3-yl)ethan-1-one] | 0.674 |
| Cc1nonc1CC(=O)N1CCC(n2nnc(C3CCCCC3)n2)CC1 [Compound 74, 1-(4-(5-cyclohexyl-2H-tetrazol-2-yl)piperidin-1-yl)-2-(4-methyl-1,2,5-oxadiazol-3-yl)ethan-1-one] | 2.07 |
| Cc1nonc1CC(=O)N1CCC(O)(c2nc(C3CCCCC3)no2)CC1 [Compound 75, 1-(4-(3-cyclohexyl-1,2,4-oxadiazol-5-yl)-4-hydroxypiperidin-1-yl)-2-(4-methyl-1,2,5-oxadiazol-3-yl)ethan-1-one] | > 10 |
| Cc1nonc1CC(=O)N1CCC(c2nc(C3CCOCC3)no2)CC1 [Compound 76, 2-(4-methyl-1,2,5-oxadiazol-3-yl)-1-(4-(3-(tetrahydro-2H-pyran-4-yl)-1,2,4-oxadiazol-5-yl)piperidin-1-yl)ethan-1-one] | > 10 |
| Cc1nonc1CC(=O)N1CCC(c2noc(C34CCC(CC3)C4)n2)CC1 [Compound 77, 1-(4-(5-(bicyclo[2.2.1]heptan-1-yl)-1,2,4-oxadiazol-3-yl)piperidin-1-yl)-2-(4-methyl-1,2,5-oxadiazol-3-yl)ethan-1-one] | > 25 |
| Cc1nonc1CC(=O)N1CCC(c2nc(C34CCC(CC3)C4)no2)CC1 [Compound 78, 1-(4-(3-(bicyclo[2.2.1]heptan-1-yl)-1,2,4-oxadiazol-5-yl)piperidin-1-yl)-2-(4-methyl-1,2,5-oxadiazol-3-yl)ethan-1-one] | 3.76 |
| Cc1nonc1CC(=O)N1CCC(n2ccc(-c3ccccc3)n2)CC1 [Compound 79, 2-(4-methyl-1,2,5-oxadiazol-3-yl)-1-(4-(3-phenyl-1H-pyrazol-1-yl)piperidin-1-yl)ethan-1-one] | > 10 |
| Cc1nonc1CC(=O)N1CCC(n2nnc(-c3ccccc3)n2)CC1 [Compound 80, 2-(4-methyl-1,2,5-oxadiazol-3-yl)-1-(4-(5-phenyl-2H-tetrazol-2-yl)piperidin-1-yl)ethan-1-one, reference compound] | 1.58 |
| Cc1nnn(C2CCN(C(=O)Cc3nonc3C)CC2)n1 [Compound 81, 2-(4-methyl-1,2,5-oxadiazol-3-yl)-1-(4-(5-methyl-2H-tetrazol-2-yl)piperidin-1-yl)ethan-1-one] | > 10 |
| Cc1noc(C2CCN(C(=O)Cc3nonc3C)CC2)n1 [Compound 82, 1-(4-(3-methyl-1,2,4-oxadiazol-5-yl)piperidin-1-yl)-2-(4-methyl-1,2,5-oxadiazol-3-yl)ethan-1-one] | > 10 |
| Cc1nonc1CC(=O)N1CCC(c2nc(C(C)C)no2)CC1 [Compound 83, 1-(4-(3-isopropyl-1,2,4-oxadiazol-5-yl)piperidin-1-yl)-2-(4-methyl-1,2,5-oxadiazol-3-yl)ethan-1-one] | > 10 |
| Cc1nonc1CC(=O)N1CCC(c2nc(C3(C)CCCCC3)no2)CC1 [Compound 84, 2-(4-methyl-1,2,5-oxadiazol-3-yl)-1-(4-(3-(1-methylcyclohexyl)-1,2,4-oxadiazol-5-yl)piperidin-1-yl)ethan-1-one] | 2.13 |
| Cc1nonc1CC(=O)N1CCC(c2nc(C3(C)COC3)no2)CC1 [Compound 85, 2-(4-methyl-1,2,5-oxadiazol-3-yl)-1-(4-(3-(3-methyloxetan-3-yl)-1,2,4-oxadiazol-5-yl)piperidin-1-yl)ethan-1-one] | > 10 |
| Cc1nonc1CC(=O)N1CCC(c2nc(C3CC3(C)C)no2)CC1 (stereo not drawn) [Compound 86, 1-(4-(3-(2,2-dimethylcyclopropyl)-1,2,4-oxadiazol-5-yl)piperidin-1-yl)-2-(4-methyl-1,2,5-oxadiazol-3-yl)ethan-1-one] | 1.81 |
| Cc1nonc1CC(=O)N1CCC(c2nc(C3CCC(C)(C)C3)no2)CC1 (stereo not drawn) [Compound 87, 1-(4-(3-(3,3-dimethylcyclopentyl)-1,2,4-oxadiazol-5-yl)piperidin-1-yl)-2-(4-methyl-1,2,5-oxadiazol-3-yl)ethan-1-one] | 0.249 |
| Cc1nonc1CC(=O)N1CCC(c2nc(C3CCC(C)(C)CC3)no2)CC1 [Compound 88, 1-(4-(3-(4,4-dimethylcyclohexyl)-1,2,4-oxadiazol-5-yl)piperidin-1-yl)-2-(4-methyl-1,2,5-oxadiazol-3-yl)ethan-1-one] | 0.181 |
| Cc1nonc1CC(=O)N1CCC(c2nc(C3CCCC(C)(C)C3)no2)CC1 (stereo not drawn) [Compound 89, 1-(4-(3-(3,3-dimethylcyclohexyl)-1,2,4-oxadiazol-5-yl)piperidin-1-yl)-2-(4-methyl-1,2,5-oxadiazol-3-yl)ethan-1-one] | 0.512 |
| Cc1nonc1CC(=O)N1CCC(c2noc(C34CC(C)(C3)C4)n2)CC1 [Compound 90, 2-(4-methyl-1,2,5-oxadiazol-3-yl)-1-(4-(5-(3-methylbicyclo[1.1.1]pentan-1-yl)-1,2,4-oxadiazol-3-yl)piperidin-1-yl)ethan-1-one] | 2.05 |
| COC(C)c1noc(C2CCN(C(=O)Cc3nonc3C)CC2)n1 (stereo not drawn) [Compound 91, 1-(4-(3-(1-methoxyethyl)-1,2,4-oxadiazol-5-yl)piperidin-1-yl)-2-(4-methyl-1,2,5-oxadiazol-3-yl)ethan-1-one] | > 10 |
| COCc1noc(C2CCN(C(=O)Cc3nonc3C)CC2)n1 [Compound 92, 1-(4-(3-(methoxymethyl)-1,2,4-oxadiazol-5-yl)piperidin-1-yl)-2-(4-methyl-1,2,5-oxadiazol-3-yl)ethan-1-one] | > 10 |
